4 compounds from article PMC6649662, “A molecular basis of human T cell receptor autoreactivity toward self-phospholipids” (Science immunology, 2017) can be followed below.

Test [1] addresses T1, CD1b (CD1b-β2m) (Homo sapiens, UniProt P29016).
T1 construct: soluble, transmembrane-truncated CD1b with β2m; from HEK 293S GnTI- or Trichoplusia ni High Five cells; lipid-loaded and purified; with Beta-2-microglobulin
The test is described as follows: X-ray crystal structure. The conditions noted are these: antigen-binding cleft, with scaffold lipids; weak density for head group.

In test [2] the target is T1, CD1b (CD1b-β2m). As to the kind of experiment: lipid loading, isoelectric focusing shift and anion exchange purification. The following applies: loaded in vitro. Format: binding.

Turning to `CCCCCCCC/C=C\CCCCCCCC(=O)O[C@H](COC(=O)CCCCCCCCCCCCCCC)COP(=O)(O)OC[C@H](N)C(=O)O` [PS, phosphatidylserine], on CD1b (CD1b-β2m) [1], the X-ray crystal structure result is “structures of the PG90 TCR and the CD1b-PS and CD1b- PA complexes”.

For the compound `CCCCCCCC/C=C\CCCCCCCC(=O)O[C@H](COC(=O)CCCCCCCCCCCCCCC)COP(=O)(O)OCCN` [PE, phosphatidylethanolamine], the “lipid loading, isoelectric focusing shift and anion exchange purification” value on CD1b (CD1b-β2m) [2] was “phospholipids are loaded into CD1b at high occupancy and purified to homogeneity”.

On to `CCCCCCCC/C=C\CCCCCCCC(=O)O[C@H](COC(=O)CCCCCCCCCCCCCCC)COP(=O)(O)O[C@@H]1[C@H](O)[C@H](O)[C@@H](O)[C@H](O)[C@H]1O` [PI, phosphatidylinositol], for which the “lipid loading, isoelectric focusing shift and anion exchange purification” value on CD1b (CD1b-β2m) [2] is “phospholipids are loaded into CD1b at high occupancy and purified to homogeneity”.

On to `CCCCCCCC/C=C\CCCCCCCC(=O)O[C@H](COC(=O)CCCCCCCCCCCCCCC)COP(=O)(O)O` [PA, phosphatidic acid], for which the X-ray crystal structure entry at CD1b (CD1b-β2m) [1] is “structures of the PG90 TCR and the CD1b-PS and CD1b- PA complexes”.
